From patent US11180487B2, “Substituted cyanoindoline derivatives as NIK inhibitors” (Janssen Pharmaceutica NV, priority 2016, dated 2021)

Columns and labels:
[1] = test system: KMS12-BM (NIK WT) multiple myeloma cells; assay: Antiproliferative activity on KMS12-BM multiple myeloma cells (CellTiter-Glo, 96 hr), Biological Assay C; assay type: cell-based, human; details: Homo sapiens, KMS-12-BM, 96 h, averaged values, read-out: KMS-12 Proliferation inhibition (IC50 (nM))
Description: (§1) Determination of Antiproliferative Activity on JJN-3 (NIK Translocated) and KMS12-BM (NIK WT) Multiple Myeloma Cells
(§2) All compounds tested were dissolved in DMSO and further dilutions were made in culture medium. Final DMSO concentration was 0.3% (v/v) in cell proliferation assays. Viability was assessed using CellTiter-Glo cell viability assay kit (Promega). The human JJN-3 and KMS12-BM cells (DSMZ) were cultured in RPMI 1640 medium supplemented with 2 mM L-glutamine, and 10% fetal calf serum (PAA). Cells were routinely kept as suspension cells at 37° C. in a humidified 5% CO2 atmosphere. Cells were passaged at a seeding density of 0.2×10^6/ml twice a week. Cells were seeded in black tissue culture treated 96-well plates (Perkin Elmer). Densities used for plating ranged from 15000 (JJN3) to 20000 (KMS12BM) cells per well in a total volume of 135 μl medium. Drugs and/or solvents were added (15 μl) to a final volume of 150 μl. Following 96 hr of treatment, plates were removed from the incubator and allowed to equilibrate to room temperature for approx 10 min. 75 μl CellTiter-Glo reagent was added to each well that was then covered (Perkin Elmer Topseal) and shaken on plate shaker for 10 min. Luminescence was measured on a HTS Topcount (Perkin Elmer).
(§3) Within an experiment, the results for each treatment were the mean of 2 replicate wells. For initial screening purposes, compounds were tested using a 9 point dilution curve (serial 1:3 dilutions). For each experiment, controls (containing no drug) and a blank incubation (containing cells read at the time of compound addition) were run in parallel. The blank value was subtracted from all control and sample values. For each sample, the mean value for cell growth (in relative light units) was expressed as a percentage of the mean value for cell growth of the control.

[2] = target: recombinant human NF-kappaB-inducing kinase (NIK/MAP3K14) (Homo sapiens, UniProt Q99558); assay: Inhibition of auto-phosphorylation of recombinant human NIK/MAP3K14 activity (AlphaScreen), Biological Assay A; assay type: biochemical; details: averaged values over all measurements on all batches
Chain of recombinant human NF-kappaB-inducing kinase (NIK/MAP3K14) (Q99558 whole entry): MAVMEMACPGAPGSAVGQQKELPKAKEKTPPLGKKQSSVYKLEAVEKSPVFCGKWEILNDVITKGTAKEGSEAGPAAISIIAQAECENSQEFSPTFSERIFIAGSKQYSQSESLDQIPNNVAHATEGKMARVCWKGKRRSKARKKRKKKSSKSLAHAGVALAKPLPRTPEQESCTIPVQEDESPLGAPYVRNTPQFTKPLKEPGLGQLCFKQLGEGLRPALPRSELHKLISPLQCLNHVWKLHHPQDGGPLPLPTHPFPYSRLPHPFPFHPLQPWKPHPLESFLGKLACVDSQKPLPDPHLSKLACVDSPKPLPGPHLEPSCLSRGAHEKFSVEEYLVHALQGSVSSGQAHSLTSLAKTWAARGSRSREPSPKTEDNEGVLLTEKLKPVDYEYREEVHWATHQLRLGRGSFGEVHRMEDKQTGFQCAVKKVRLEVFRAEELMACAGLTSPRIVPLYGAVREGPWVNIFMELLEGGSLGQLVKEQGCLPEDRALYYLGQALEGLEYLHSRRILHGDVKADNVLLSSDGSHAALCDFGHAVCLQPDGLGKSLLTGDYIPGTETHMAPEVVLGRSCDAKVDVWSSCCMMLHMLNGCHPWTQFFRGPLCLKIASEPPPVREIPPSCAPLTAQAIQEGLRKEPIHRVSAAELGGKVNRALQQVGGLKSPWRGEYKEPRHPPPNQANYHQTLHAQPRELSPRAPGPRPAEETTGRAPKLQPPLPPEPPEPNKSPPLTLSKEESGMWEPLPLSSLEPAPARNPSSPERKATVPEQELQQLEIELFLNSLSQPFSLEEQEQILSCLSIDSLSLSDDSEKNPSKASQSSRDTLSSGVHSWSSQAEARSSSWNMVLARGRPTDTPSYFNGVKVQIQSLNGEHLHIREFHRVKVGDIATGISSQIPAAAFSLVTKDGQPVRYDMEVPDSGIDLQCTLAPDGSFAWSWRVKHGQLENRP
Description: Inhibition of Auto-Phosphorylation of Recombinant Human NF-kappaB-Inducing Kinase (NIK/MAP3K14) Activity (AlphaScreen®)
NIK/MAP3K14 auto-phosphorylation activity was measured using the AlphaScreen® (αscreen) format (Perkin Elmer). All compounds tested were dissolved in dimethyl sulfoxide (DMSO) and further dilutions were made in assay buffer. Final DMSO concentration was 1% (v/v) in assays. Assay buffer was 50 mM Tris pH 7.5 containing 1 mM EGTA (ethylene glycol tetraacetic acid), 1 mM DTT (dithiothreitol), 0.1 mM Na3VO4, 5 mM MgCl2, 0.01% Tween® 20. Assays were carried out in 384 well Alphaplates (Perkin Elmer). Incubations consisted of compound, 25 microM Adenosine-5′-triphosphate (ATP), and 0.2 nM NIK/MAP3K14. Incubations were initiated by addition of GST-tagged NIK/MAP3K14 enzyme, carried out for 1 h at 25° C. and terminated by addition of stop buffer containing anti-phospho-IKK Ser176/180 antibody. Protein A Acceptor and Glutathione-Donor beads were added before reading using an EnVision® Multilabel Plate Reader (Perkin Elmer). Signal obtained in the wells containing blank samples was subtracted from all other wells and IC50's were determined by fitting a sigmoidal curve to % inhibition of control versus Log10 compound concentration.

[3] = test system: JJN-3 (NIK translocated) multiple myeloma cells; assay: Antiproliferative activity on JJN-3 multiple myeloma cells (CellTiter-Glo, 96 hr), Biological Assay C; assay type: cell-based, human; details: Homo sapiens, JJN-3, 96 h, JJN-3 (NIK translocated) cells, averaged values, read-out: JJN-3 Proliferation inhibition (IC50 (nM))
Description: as §1, §2, §3

Row | Structure (SMILES) | IC50 [1] [nM] | IC50 [2] [nM] | melting point [°C] | IC50 [3] [nM]
1 | COc1cc(C(=O)NCC(C)O)c(Cl)cc1Nc1nccc(-c2cc(C#N)c3c(c2)C(C)(C)CN3)n1 (stereo not shown) [Compound 112] | > 10000 | 4.3 | > 260 | 20
2 | C[C@]1(CO)CNc2c(C#N)cc(-c3ccnc(Nc4cc(C#N)ccc4C4CC4)n3)cc21 [Compound 71] | > 10000 | 7.2 | 210 | 148
3 | COCCOc1cc(F)ccc1Nc1nccc(-c2cc(C#N)c3c(c2)[C@@](C)(CO)CN3)n1 [Compound 69] | > 10000 | 4.9 | 157 | 1020
4 | CC1(CO)CNc2c(C#N)cc(-c3ccnc(Nc4cc(Cl)ccc4Cl)n3)cc21 (stereo not shown) [Compound 29] | > 10000 | 17.4 | 210 | 166
5 | CN(C)C(=O)Cc1ccc(Cl)cc1Nc1nccc(-c2cc(C#N)c3c(c2)C(C)(CO)CN3)n1 (stereo not shown) [Compound 54] | > 10000 | 9.8 | 154 | 275
6 | Cc1cc(C(=O)NCC2COC2)c(F)cc1Nc1nccc(-c2cc(C#N)c3c(c2)[C@@](C)(CO)CN3)n1 [Compound 187] | 1100 | 3.2 | 240 | 39
7 | CNCCOc1ccc(Cl)cc1Nc1nccc(-c2cc(C#N)c3c(c2)C(C)(CO)CN3)n1 (stereo not shown) [Compound 44] | > 10000 | 8.3 | 168 | 219
8 | CC1(CO)CNc2c(C#N)cc(-c3ccnc(Nc4cc(C(F)(F)F)ccc4OCCO)n3)cc21 (stereo not shown) [Compound 38] | > 10000 | 30.9 | 190 | 182
9 | COc1ccc(C(F)(F)F)cc1Nc1nccc(-c2cc(C#N)c3c(c2)C(C)(CO)CN3)n1 (stereo not shown) [Compound 30] | > 10000 | 51.3 | 224 | > 10000
10 | COCCOc1ccc(Cl)cc1Nc1nccc(-c2cc(C#N)c3c(c2)[C@](C)(CO)CN3)n1 [Compound 57] | > 10000 | 50.1 | 188 | > 10000
11 | COc1ccc(Cl)cc1Nc1nccc(-c2cc(C#N)c3c(c2)C(C)(CO)CN3)n1 (stereo not shown) [Compound 33] | > 10000 | 11.2 | 239 | 85
12 | CC1(CO)CNc2c(C#N)cc(-c3ccnc(Nc4ccc(C5CCOCC5)c(C(F)(F)F)c4)n3)cc21 (stereo not shown) [Compound 36] | 6460 | 75.9 | 263 | 51
13 | COCCOc1ccc(Cl)cc1Nc1nccc(-c2cc(C#N)c3c(c2)C(C)(CO)CN3)n1 (stereo not shown) [Compound 34] | > 10000 | 20.9 | 184 | 316
14 | COc1cc(Nc2nccc(-c3cc(C#N)c4c(c3)C(C)(C)CN4)n2)c(F)c(OC)c1 [Compound 104] | > 10000 | 12 | 176 | 2140
15 | COCCCc1ccc(Cl)cc1Nc1nccc(-c2cc(C#N)c3c(c2)[C@@](C)(CO)CN3)n1 [Compound 72] | > 10000 | 11 | 189 | 123
16 | CCN1CCC(c2ccc(Nc3nccc(-c4cc(C#N)c5c(c4)C(C)(CO)CN5)n3)cc2Cl)CC1 (stereo not shown) [Compound 41] | 110 | 1.7 | > 260 | 13
17 | CN1CCCC(Oc2ccc(Cl)cc2Nc2nccc(-c3cc(C#N)c4c(c3)C(C)(CO)CN4)n2)C1 (mixture of isomers) [Compound 39] | 2340 | 7.4 | 173 | 87

Row | Structure (SMILES) | IC50 [1] [nM] | IC50 [2] [nM] | melting point [°C] | IC50 [3] [nM]
18 | CC1(C)CNc2c(C#N)cc(-c3ccnc(Nc4ccccc4C(=O)N4CCC(O)C4)n3)cc21 (stereo not shown) [Compound 111] | > 10000 | 3550 | 219 | 3470
19 | Cc1cc(C2CCOCC2)c(C#N)cc1Nc1nccc(-c2cc(C#N)c3c(c2)[C@@](C)(CO)CN3)n1 [Compound 75] | ~3310 | 3.6 | 228 | 105
20 | CC(C)Oc1ccc(Cl)cc1Nc1nccc(-c2cc(C#N)c3c(c2)C(C)(C)CN3)n1 [Compound 102] | > 10000 | 403 | 112 | 3550
21 | COCCOc1ccc(Cl)cc1Nc1nccc(-c2cc(C#N)c3c(c2)C(C)(C)CN3)n1 [Compound 100] | > 10000 | 91.2 | 171 | 1410
22 | COc1cc(C(=O)N2CC3(CCNCC3)C2)c(Cl)cc1Nc1nccc(-c2cc(C#N)c3c(c2)C(C)(C)CN3)n1 [Compound 114] | 490 | 2.2 | 206 | 19
23 | CC1(CO)CNc2c(C#N)cc(-c3ccnc(Nc4cc(Cl)ccc4OCCO)n3)cc21 (stereo not shown) [Compound 40] | > 10000 | 8.7 | 236 | 155
24 | CC(C)N1CCN(C(=O)Cc2ccc(Cl)cc2Nc2nccc(-c3cc(C#N)c4c(c3)C(C)(CO)CN4)n2)CC1 (stereo not shown) [Compound 55] | > 10000 | 15.5 | 135 | 282
25 | COCCOc1cc(P(C)(C)=O)ccc1Nc1nccc(-c2cc(C#N)c3c(c2)[C@@](C)(CO)CN3)n1 [Compound 67] | > 10000 | 4.3 | 188 | ~1700
26 | CC1(C)CNc2c(C#N)cc(-c3ccnc(Nc4cc(Cl)ccc4OC4CCN(C5CC5)CC4)n3)cc21 [Compound 99] | 8320 | 219 | 120 | 380
27 | CN1CCC(Oc2ccc(Nc3nccc(-c4cc(C#N)c5c(c4)C(C)(CO)CN5)n3)cc2C(F)(F)F)CC1 (stereo not shown) [Compound 43] | 251 | 2.5 | 237 | 9
28 | Cc1c(Nc2nccc(-c3cc(C#N)c4c(c3)C(C)(CO)CN4)n2)cc(Cl)cc1C(=O)N(C)C (stereo not shown) [Compound 53] | 1260 | 3.6 | 245 | 33
29 | CC1(CO)CNc2c(C#N)cc(-c3ccnc(Nc4cc(Cl)ccc4OC(F)(F)F)n3)cc21 (stereo not shown) [Compound 52] | > 10000 | 41.7 | 217 | 676
30 | C[C@]1(CO)CNc2c(C#N)cc(-c3ccnc(Nc4cc(C#N)ccc4C(F)(F)F)n3)cc21 [Compound 70] | > 10000 | 3.9 | 237 | 2190
31 | CC1(C)CNc2c(C#N)cc(-c3ccnc(Nc4cc(Cl)ccc4OCCO)n3)cc21 [Compound 107] | > 10000 | 41.7 | 176 | 1020
32 | CC(C)c1ccc(COc2cccc(Nc3nccc(-c4cc(C#N)c5c(c4)C(C)(CO)CN5)n3)c2)cc1 (stereo not shown) [Compound 42] | > 10000 | 309 | 183 | 4270
33 | CC1CN(Cc2ccc(Nc3nccc(-c4cc(C#N)c5c(c4)C(C)(CO)CN5)n3)cc2C(F)(F)F)CC(C)N1C (stereo not shown) [Compound 50] | 102 | 3 | 190 | 9
34 | CC(=O)Nc1cc(Cl)cc(Nc2nccc(-c3cc(C#N)c4c(c3)[C@@](C)(CO)CN4)n2)c1C [Compound 63] | ~5010 | 1.7 | 262 | 7
